Data taken from ChEMBL document CHEMBL3779848, “Effect of chlorine substituent on cytotoxic activities: Design and synthesis of systematically modified 2,4-diphenyl-5H-indeno[1,2-b]pyridines” (Bioorg Med Chem Lett, 2016).
pIC50: −log10 of the molar value. Counter-ions that a name gives are not always drawn.

Columns and labels:
[1] = Potency index, ratio of IC50 for adriamycin to IC50 for test compound for cytotoxicity against human HCT15 cells; format: functional, HCT-15
HeLa [2] = assay: Cytotoxicity against human HeLa cells after 3 days by CCK8 assay; format: functional, cell-based; conditions: 72 h
HeLa [3] = assay: Potency index, ratio of IC50 for adriamycin to IC50 for test compound for cytotoxicity against human HeLa cells; format: functional
T47D [4] = assay: Potency index, ratio of IC50 for adriamycin to IC50 for test compound for cytotoxicity against human T47D cells; format: functional
[5] = target: DNA topoisomerase 2-alpha (Homo sapiens) (UniProt P11388); assay: Inhibition of human recombinant DNA topoisomerase 2alpha at 100 uM assessed as relaxation of supercoiled DNA pBR322 after 30 mins by Agarose gel electrophoresis
Sequence of DNA topoisomerase 2-alpha (Homo sapiens) (P11388 whole entry): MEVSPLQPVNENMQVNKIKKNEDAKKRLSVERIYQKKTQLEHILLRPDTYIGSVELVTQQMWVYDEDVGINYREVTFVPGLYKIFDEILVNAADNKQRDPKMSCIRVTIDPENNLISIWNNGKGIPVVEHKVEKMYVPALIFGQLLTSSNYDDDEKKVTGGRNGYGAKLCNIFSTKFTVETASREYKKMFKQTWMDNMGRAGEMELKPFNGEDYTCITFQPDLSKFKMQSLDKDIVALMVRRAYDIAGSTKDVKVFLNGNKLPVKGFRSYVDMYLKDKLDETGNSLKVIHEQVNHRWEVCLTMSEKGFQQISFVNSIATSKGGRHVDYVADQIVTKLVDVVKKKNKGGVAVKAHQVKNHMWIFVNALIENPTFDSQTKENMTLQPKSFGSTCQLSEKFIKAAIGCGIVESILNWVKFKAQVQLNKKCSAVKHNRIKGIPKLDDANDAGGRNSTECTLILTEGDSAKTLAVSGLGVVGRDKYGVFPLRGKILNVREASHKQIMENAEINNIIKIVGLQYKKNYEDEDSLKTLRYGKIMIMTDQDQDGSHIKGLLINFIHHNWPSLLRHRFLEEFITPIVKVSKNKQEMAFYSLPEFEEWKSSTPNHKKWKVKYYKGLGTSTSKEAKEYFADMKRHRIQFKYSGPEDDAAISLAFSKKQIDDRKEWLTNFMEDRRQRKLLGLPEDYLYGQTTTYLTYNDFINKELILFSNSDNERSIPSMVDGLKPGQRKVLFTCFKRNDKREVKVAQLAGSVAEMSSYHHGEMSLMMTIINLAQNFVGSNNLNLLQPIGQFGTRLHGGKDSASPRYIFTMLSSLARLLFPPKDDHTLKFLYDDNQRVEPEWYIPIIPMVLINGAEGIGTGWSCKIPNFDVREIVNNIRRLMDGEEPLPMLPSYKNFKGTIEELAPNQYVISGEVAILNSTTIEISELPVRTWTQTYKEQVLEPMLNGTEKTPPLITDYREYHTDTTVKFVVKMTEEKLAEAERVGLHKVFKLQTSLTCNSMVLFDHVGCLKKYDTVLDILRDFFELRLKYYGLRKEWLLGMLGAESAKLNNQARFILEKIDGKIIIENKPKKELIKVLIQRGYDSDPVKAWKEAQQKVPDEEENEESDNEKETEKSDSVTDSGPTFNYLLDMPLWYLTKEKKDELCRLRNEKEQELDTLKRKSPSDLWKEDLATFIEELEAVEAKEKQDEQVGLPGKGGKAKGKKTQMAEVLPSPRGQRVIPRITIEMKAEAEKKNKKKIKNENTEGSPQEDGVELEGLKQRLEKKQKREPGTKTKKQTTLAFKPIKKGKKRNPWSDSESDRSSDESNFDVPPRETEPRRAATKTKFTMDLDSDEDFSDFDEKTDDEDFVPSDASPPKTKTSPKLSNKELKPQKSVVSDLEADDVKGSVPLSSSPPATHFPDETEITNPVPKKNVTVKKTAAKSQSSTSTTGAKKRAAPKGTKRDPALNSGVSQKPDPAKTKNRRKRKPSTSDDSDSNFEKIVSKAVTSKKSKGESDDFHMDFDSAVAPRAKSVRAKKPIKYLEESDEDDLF

T47D [6] = assay: Cytotoxicity against human T47D cells after 3 days by CCK8 assay; format: functional, cell-based; conditions: 72 h
[7] = target: T1, DNA topoisomerase 1 (Homo sapiens) (UniProt P11387); assay: Inhibition of human recombinant DNA topoisomerase 1 at 100 uM assessed as relaxation of supercoiled DNA pBR322 after 30 mins by Agarose gel electrophoresis
T1 sequence (whole entry): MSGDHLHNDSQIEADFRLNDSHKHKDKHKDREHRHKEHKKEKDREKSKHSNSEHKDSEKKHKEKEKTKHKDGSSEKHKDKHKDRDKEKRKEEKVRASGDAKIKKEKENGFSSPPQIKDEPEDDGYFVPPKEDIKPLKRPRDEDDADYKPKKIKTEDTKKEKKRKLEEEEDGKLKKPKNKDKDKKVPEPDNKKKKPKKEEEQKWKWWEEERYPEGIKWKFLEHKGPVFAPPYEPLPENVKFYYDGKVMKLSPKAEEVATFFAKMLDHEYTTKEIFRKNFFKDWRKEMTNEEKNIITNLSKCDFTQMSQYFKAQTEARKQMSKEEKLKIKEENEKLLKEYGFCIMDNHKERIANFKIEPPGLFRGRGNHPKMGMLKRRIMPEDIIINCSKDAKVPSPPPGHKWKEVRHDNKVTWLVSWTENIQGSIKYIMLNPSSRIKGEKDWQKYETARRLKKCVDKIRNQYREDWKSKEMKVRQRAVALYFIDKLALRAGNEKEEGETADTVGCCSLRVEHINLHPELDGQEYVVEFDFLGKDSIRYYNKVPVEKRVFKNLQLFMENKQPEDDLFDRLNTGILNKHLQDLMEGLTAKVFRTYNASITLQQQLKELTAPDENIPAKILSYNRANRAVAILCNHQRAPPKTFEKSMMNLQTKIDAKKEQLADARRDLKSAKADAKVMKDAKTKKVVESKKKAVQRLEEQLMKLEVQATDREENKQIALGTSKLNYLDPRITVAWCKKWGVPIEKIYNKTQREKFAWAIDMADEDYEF

[8] = Cytotoxicity against human HCT15 cells after 3 days by CCK8 assay; format: functional, cell-based; conditions: HCT-15, 72 h
[9] = target: T1, DNA topoisomerase 1 (Homo sapiens); assay: Inhibition of human recombinant DNA topoisomerase 1 at 20 uM assessed as relaxation of supercoiled DNA pBR322 after 30 mins by Agarose gel electrophoresis

| Structure (SMILES) | inhibition [5] | inhibition [7] | inhibition [9] | Ratio IC50 [1] | pIC50 (HeLa [2]) | Ratio IC50 (HeLa [3]) | Ratio IC50 (T47D [4]) | pIC50 (T47D [6]) | pIC50 [8] |
| --- | --- | --- | --- | --- | --- | --- | --- | --- | --- |
| Oc1cccc(-c2cc(-c3ccc(Cl)cc3)nc3c2Cc2ccccc2-3)c1 | 3.9% | 0% | – | 0.05 | 5.18 | 0.12 | 1.08 | 5.87 | 5.73 |
| Oc1ccccc1-c1cc(-c2ccccc2)c2c(n1)-c1ccccc1C2 | 36.4% | 1.3% | – | – | < 4.30 | – | – | < 4.30 | < 4.30 |
| Oc1cccc(-c2cc(-c3ccc(Cl)cc3)c3c(n2)-c2ccccc2C3)c1 | 3.8% | 5.8% | – | 0.05 | 5.64 | 0.36 | 0.99 | 5.83 | 5.68 |
| CC[C@@]1(O)C(=O)OCc2c1cc1n(c2=O)Cc2cc3ccccc3nc2-1 [CAMPTOTHECIN] | – | – | – | – | 6.23 | – | – | 4.95 | 5.89 |
| Oc1cccc(-c2cc(-c3ccccc3Cl)nc3c2Cc2ccccc2-3)c1 | 3.1% | 0% | – | 0.25 | 5.70 | 0.41 | 4.74 | 6.51 | 6.40 |
| COc1cc([C@@H]2c3cc4c(cc3[C@@H](O[C@@H]3O[C@@H]5CO[C@@H](C)O[C@H]5[C@H](O)[C@H]3O)[C@H]3COC(=O)[C@H]23)OCO4)cc(OC)c1O [ETOPOSIDE] | – | – | – | – | 6.74 | – | – | 5.74 | 5.55 |
| Oc1cccc(-c2cc(-c3ccccc3)c3c(n2)-c2ccccc2C3)c1 | 76% | 2.3% | – | 0.45 | 5.52 | 0.29 | 0.34 | 5.41 | 5.57 |
| Oc1ccc(-c2cc(-c3cccc(Cl)c3)nc3c2Cc2ccccc2-3)cc1 | 3% | 0% | – | 0.32 | 5.30 | 0.16 | 1.03 | 5.85 | 6.51 |
| c1ccc(-c2cc(-c3ccccc3)c3c(n2)-c2ccccc2C3)cc1 | 17.8% | 0% | – | – | 4.76 | – | – | 4.57 | < 4.30 |
| COc1cccc2c1C(=O)c1c(O)c3c(c(O)c1C2=O)C[C@@](O)(C(=O)CO)C[C@@H]3O[C@H]1C[C@H](N)[C@H](O)[C@H](C)O1 [DOXORUBICIN HYDROCHLORIDE] | – | – | – | – | 6.09 | – | – | – | – |
| Oc1ccccc1-c1cc(-c2ccccc2Cl)nc2c1Cc1ccccc1-2 | 1.9% | 0.8% | – | – | 5.15 | – | – | 5.18 | 5.21 |
| Oc1cccc(-c2cc(-c3ccccc3)nc3c2Cc2ccccc2-3)c1 | 70.5% | 20.6% | – | 0.91 | 5.40 | 0.22 | 0.86 | 5.81 | 5.87 |
| Oc1ccccc1-c1cc(-c2ccccc2)nc2c1Cc1ccccc1-2 | 69.6% | 15.1% | – | – | < 4.30 | – | – | < 4.30 | < 4.30 |
| Oc1ccccc1-c1cc(-c2cccc(Cl)c2)c2c(n1)-c1ccccc1C2 | 2.8% | 1.1% | – | – | < 4.30 | – | – | < 4.30 | < 4.30 |
| Oc1cccc(-c2cc(-c3cccc(Cl)c3)c3c(n2)-c2ccccc2C3)c1 | 4.4% | 7.5% | – | 0.06 | 5.72 | 0.43 | 0.79 | 5.73 | 5.80 |
| Oc1ccccc1-c1cc(-c2cccc(Cl)c2)nc2c1Cc1ccccc1-2 | 5.4% | 0% | – | – | 4.77 | – | – | < 4.30 | 4.52 |
| Oc1cccc(-c2cc(-c3cccc(Cl)c3)nc3c2Cc2ccccc2-3)c1 | 3.2% | 0% | – | 0.03 | 5.34 | 0.18 | 1.11 | 5.88 | 5.51 |

The next lines start with results.

| inhibition [5] | inhibition [7] | inhibition [9] | Structure (SMILES) | Ratio IC50 [1] | pIC50 (HeLa [2]) | Ratio IC50 (HeLa [3]) | Ratio IC50 (T47D [4]) | pIC50 (T47D [6]) | pIC50 [8] |
| --- | --- | --- | --- | --- | --- | --- | --- | --- | --- |
| 65.9% | 25.9% | – | Oc1ccc(-c2cc(-c3ccccc3)nc3c2Cc2ccccc2-3)cc1 | 0.57 | 5.32 | 0.18 | 0.98 | 5.87 | 5.67 |
| 80.6% | 5.2% | – | Oc1ccc(-c2cc(-c3ccccc3)c3c(n2)-c2ccccc2C3)cc1 | 0.61 | 5.41 | 0.22 | 0.63 | 5.68 | 5.70 |
| 2.7% | 0% | – | Oc1ccccc1-c1cc(-c2ccc(Cl)cc2)nc2c1Cc1ccccc1-2 | – | < 4.30 | – | – | < 4.30 | < 4.30 |
| 4.9% | 35.5% | 2.8% | Oc1ccc(-c2cc(-c3cccc(Cl)c3)c3c(n2)-c2ccccc2C3)cc1 | 0.12 | 5.43 | 0.22 | 0.9 | 5.79 | 6.09 |
| 3.5% | 0% | – | Oc1ccc(-c2cc(-c3ccccc3Cl)nc3c2Cc2ccccc2-3)cc1 | 0.05 | 5.57 | 0.3 | 1.86 | 6.10 | 5.74 |
| 3.2% | 1.4% | – | Oc1ccc(-c2cc(-c3ccc(Cl)cc3)nc3c2Cc2ccccc2-3)cc1 | 0.11 | 5.36 | 0.19 | 1.16 | 5.90 | 6.06 |
| 1.6% | 15.5% | – | Oc1ccc(-c2cc(-c3ccccc3Cl)c3c(n2)-c2ccccc2C3)cc1 | 0.12 | 5.47 | 0.24 | 0.9 | 5.79 | 6.08 |
| 6.7% | 29.3% | – | Oc1cccc(-c2cc(-c3ccccc3Cl)c3c(n2)-c2ccccc2C3)c1 | 0.08 | 5.58 | 0.31 | 0.67 | 5.66 | 5.93 |
| 4.8% | 0% | – | Oc1ccccc1-c1cc(-c2ccccc2Cl)c2c(n1)-c1ccccc1C2 | – | < 4.30 | – | – | < 4.30 | < 4.30 |
| 2.8% | 8.3% | – | Oc1ccccc1-c1cc(-c2ccc(Cl)cc2)c2c(n1)-c1ccccc1C2 | – | < 4.30 | – | – | < 4.30 | < 4.30 |
| 8.5% | 19.1% | – | Oc1ccc(-c2cc(-c3ccc(Cl)cc3)c3c(n2)-c2ccccc2C3)cc1 | 0.11 | 5.61 | 0.33 | 1.67 | 6.06 | 6.03 |
